Here are results for 31 compounds from patent publication US8685974B2 (Bayer CropScience AG, priority 2009, dated 2014).

Read-outs that look alike come from different tables or passages of the source. Marks after values point to notes of the source that are not given here.

One series has as its system Leptosphaeria nodorum. Kind of series: Leptosphaeria nodorum test (wheat) / protective. The format is in vivo. As to conditions: 500 ppm active compound, protective spray, evaluated 7-9 days after inoculation. As to the method: Leptosphaeria nodorum Test (Wheat)/Protective
Solvent: 49 parts by weight of N,N-dimethylformamide
Emulsifier: 1 part by weight of alkylaryl polyglycol ether
To produce a suitable preparation of active compound, 1 part by weight of active compound is mixed with the stated amounts of solvent and emulsifier, and the concentrate is diluted with water to the desired concentration.
To test for protective activity, young wheat plants are sprayed with the preparation of active compound at the stated application rate. […] The plants are then placed in a greenhouse at 90% rel. atmospheric humidity and a temperature of 22° C.
Evaluation is carried out 7-9 days after the inoculation. 0% means an efficacy which corresponds to that of the control, whereas an efficacy of 100% means that no infection is observed.

The test system of a further series is Alternaria solani. Description: Alternaria test (tomato) / protective. The series is classed as in vivo. As to conditions: 500 ppm active compound, protective spray, evaluated 7 days after inoculation. In short, it runs like this:
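Young tomato plants sprayed protectively with compound formulated in DMF with alkylaryl polyglycol ether emulsifier and diluted in water to the application rate. After inoculation, plants held at 96% rel. humidity and 20° C. Efficacy scored 7 days post-inoculation: 0% equals untreated control, 100% no infection.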

The subject of a further series is Pyrenophora teres. Kind of series: In vivo test on Pyrenophora teres (barley net blotch). To be noted: dose of 500 ppm; barley plants; grading 12 days after contamination. In outline:
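Barley plants (Plaisant) grown at 12° C. sprayed at 1-leaf stage with compound in acetone/Tween/DMSO diluted in water; 24 h later inoculated with P. teres spores (12,000 spores/ml). Incubated 24 h at ~20° C., 100% RH, then 12 days at 80% RH; graded 12 days post-inoculation against untreated controls.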

In the next series the test system is Fusarium graminearum. The format is cell-based. As to conditions: 50 μM; for % Inhibition of DON/AcDON at 50 μM: 7 days at 28° C.
The nature of a further series: physchem. To be noted: pH 2.7.

For the compound `CC(=O)Nc1cc(-c2cn(CC(C)C)nc2-c2ccc(Cl)s2)cc[n+]1[O-]` [Example 80], the efficacy was 70% in the series on Leptosphaeria nodorum and 94% with Alternaria solani. For the same compound, where the note is “pH 2.3”, the log p is 2.86^[a].
For `CC(C)Cn1cc(-c2ccnc(N)n2)c(-c2ccc(Cl)s2)n1` [Example 95] the same measures were 80%, 70% and 2.35^[a].
The compound `COc1ccc(Cn2cc(-c3ccncc3)c(-c3ccc(Cl)s3)n2)cc1` [Example 104] registered an efficacy in the series with Leptosphaeria nodorum of 80%. Also, the log p (pH 2.7) is 2.74^[b].
As for `Cc1c(-c2ccncc2)c(-c2ccc(Cl)s2)nn1C(C)C` [Example 145], the efficacy in the series on Leptosphaeria nodorum is given as 95%; in the series on Alternaria solani it was 100%. In addition, the protection in the series on Pyrenophora teres was 100%. The log p is, setting by setting: (pH 2.7) 2.07^[b]; (pH 7.8) 3.8^[c];.
Regarding `CCn1nc(-c2ccc(Cl)s2)c(-c2ccncc2)c1C` [Example 146], the efficacy in the series with Leptosphaeria nodorum and with Alternaria solani was 95% in each case. In the series on Pyrenophora teres, the protection worked out at 100%. For the same compound, the log p reads like this: (pH 2.7) 1.61^[b]; (pH 7.8) 3.08^[c];.
On to `CCC(=O)Nc1cc(-c2c(-c3ccc(Cl)s3)nn(C(C)C)c2C)ccn1` [Example 168], for which the efficacy in the series on Leptosphaeria nodorum and in the series with Alternaria solani was 90% throughout. In the series on Pyrenophora teres, this compound registered a protection of 90%. The log p by setting is: (pH 2.7) 3.34^[b]; (pH 7.8) 3.76^[c];.
Take `CCC(=O)Nc1cc(-c2c(-c3ccc(Cl)s3)nn(CC)c2C)ccn1` [Example 169]: the efficacy in the series with Leptosphaeria nodorum was found to be 80%; with Alternaria solani, 95%. Also, the protection in the series with Pyrenophora teres stood at 95%. For the same compound, the log p by setting is: (pH 2.7) 2.71^[b]; (pH 7.8) 3.1^[c];.
With `CCC(=O)Nc1cc(-c2c(-c3ccc(Cl)s3)nn(C)c2C)ccn1` [Example 170], the efficacy in the series on Leptosphaeria nodorum and in the series on Alternaria solani was 90% in each case. Also, the protection in the series on Pyrenophora teres is given as 80%. The log p is, setting by setting: (pH 2.7) 2.32^[b]; (pH 7.8) 2.68^[c];.
`CC(=O)N(C(C)=O)c1nccc(-c2cn(C(C)C)nc2-c2ccc(Cl)s2)n1` [Example 171]: the efficacy in the series on Leptosphaeria nodorum is given as 89%. The same compound had a protection in the series with Pyrenophora teres of 95%. Further, the log p (pH 2.3) is 3.33^[a].
For `CCC(=O)Nc1nccc(-c2cn(C(C)C)nc2-c2ccc(Cl)s2)n1` [Example 172], the efficacy with Leptosphaeria nodorum is recorded as 89%. Moreover, the protection with Pyrenophora teres was determined as 100%. Besides, the log p (pH 2.3) is 3.04^[a].
For `CCC(C)n1cc(-c2ccnc(NC(=O)C(C)C)n2)c(-c2ccc(Cl)s2)n1` (stereo not shown) [Example 173] the same measures were 89%, 95% and 3.72^[a].
Regarding `CCC(=O)Nc1cc(-c2cn(C(C)C)nc2-c2cccs2)ccn1` [Example 175], the efficacy with Leptosphaeria nodorum stood at 70%; in the series on Alternaria solani, 80%. For the same compound, the protection with Pyrenophora teres is 90%. Also, the log p by setting is: (pH 2.7) 2.01^[b]; (pH 7.8) 2.61^[c];.
Regarding `CC(C)n1cc(-c2ccnc(NC3COC3)n2)c(-c2ccc(Cl)s2)n1` [Example 179], the efficacy with Leptosphaeria nodorum and in the series on Alternaria solani was 80% in each case. Moreover, the protection in the series on Pyrenophora teres came to 90%. Moreover, where the note is “pH 2.3”, the log p is 2.7^[a].
Take `C#CCNc1nccc(-c2cn(C(C)C)nc2-c2ccc(Cl)s2)n1` [Example 180]: the efficacy in the series with Leptosphaeria nodorum worked out at 70%. Also, the protection in the series with Pyrenophora teres is listed as 80%. In addition, for the setting “pH 2.3”, the log p was 3.25^[a].
Taken in the same sequence, the figures for `CC(C)Nc1nccc(-c2cn(C(C)C)nc2-c2ccc(Cl)s2)n1` [Example 181] were 70%, 80% and 2.82^[a].
In the case of `CCC(=O)Nc1nccc(-c2cn(C(C)CC)nc2-c2ccc(Cl)s2)n1` (stereo not shown) [Example 190], the efficacy with Leptosphaeria nodorum turned out to be 70%; in the series on Alternaria solani, 80%. The compound further had a protection with Pyrenophora teres of 95%. Besides, the log p (pH 2.3) is 3.37^[a].
For `CCC(=O)Nc1cc(-c2cn(C(C)CC)nc2-c2ccc(Cl)s2)ccn1` (stereo not shown) [Example 225], in the series with Fusarium graminearum, the “% Inhibition of fungal growth at 50 μM” value was found to be 87% and the “% Inhibition of DON/AcDON at 50 μM” value was determined as 99%. Also, the efficacy in the series with Leptosphaeria nodorum was 70%. Also, the protection in the series with Pyrenophora teres was determined as 95%. Besides, the log p (pH 2.7) was 3.19^[b]. The compound also came in with an efficacy with Alternaria solani of 95%.
Consider `CCC(C)n1cc(-c2ccnc(NC(=O)C3CC3)c2)c(-c2ccc(Cl)s2)n1` (stereo not shown) [Example 226], for which, in the series on Fusarium graminearum, the “% Inhibition of fungal growth at 50 μM” value was 93% and the “% Inhibition of DON/AcDON at 50 μM” value came out at 99%. In the series on Leptosphaeria nodorum, this compound yielded an efficacy of 80%. Also, the protection in the series on Pyrenophora teres stood at 100%. The log p (pH 2.7) is 3.35^[b]. Further, the efficacy in the series on Alternaria solani is on record as 90%.
Turning to `CCC(C)n1cc(-c2ccnc(NC(=O)C(C)C)c2)c(-c2ccc(Cl)s2)n1` (stereo not shown) [Example 234], in the series with Fusarium graminearum, the “% Inhibition of fungal growth at 50 μM” value was 45% and the “% Inhibition of DON/AcDON at 50 μM” value came to 96%. In the series on Leptosphaeria nodorum, this compound returned an efficacy of 80%. Besides, the protection in the series with Pyrenophora teres is recorded as 95%. For the same compound, the log p (pH 2.7) was 3.63^[b]. The compound also returned an efficacy in the series with Alternaria solani of 90%.
Turning to `CC(C)n1cc(-c2ccnc(NC(=O)C3CCC3)c2)c(-c2ccc(Cl)s2)n1` [Example 243], the “% Inhibition of fungal growth at 50 μM” value in the series with Fusarium graminearum was determined as 31%. For the same compound, the “% Inhibition of DON/AcDON at 50 μM” value in the series with Fusarium graminearum was determined as 99%. The efficacy in the series on Leptosphaeria nodorum and in the series on Alternaria solani was 90% throughout. The same compound had a protection with Pyrenophora teres of 95%. The log p (pH 2.7) was 3.37^[b].
`CC(C)n1cc(-c2ccnc(NC(=O)N(C)C)c2)c(-c2ccc(Cl)s2)n1` [Example 248]: the efficacy with Leptosphaeria nodorum and in the series with Alternaria solani was 90% in each case. In addition, the protection with Pyrenophora teres was found to be 100%. In addition, the log p (pH 2.7) was 1.97^[b].
For `CCn1cc(-c2ccnc(NC(=O)C3CCC3)c2)c(-c2ccc(Cl)s2)n1` [Example 269], in the series with Fusarium graminearum, the “% Inhibition of fungal growth at 50 μM” value is 58% and the “% Inhibition of DON/AcDON at 50 μM” value is listed as 87%. The efficacy with Leptosphaeria nodorum is on record as 70%. In addition, the protection with Pyrenophora teres worked out at 80%. In addition, the log p (pH 2.7) is 2.92^[b].
In the case of `Cn1cc(-c2ccnc(NC(=O)Cc3ccccc3)c2)c(-c2ccc(Cl)s2)n1` [Example 277], the efficacy is given as 70% in the series on Leptosphaeria nodorum and 90% in the series on Alternaria solani. Further, the protection with Pyrenophora teres worked out at 90%. Also, the log p (pH 2.7) was 3.06^[b].
With `CCC(C)C(=O)Nc1cc(-c2cn(C)nc2-c2ccc(Cl)s2)ccn1` (stereo not shown) [Example 280], the efficacy in the series with Leptosphaeria nodorum was 80%; with Alternaria solani it was 90%. This compound also came in with a protection with Pyrenophora teres of 90%. Also, where the note is “pH 2.7”, the log p is 2.71^[b].
Turning to `CCC(C)n1cc(-c2ccnc(Cl)c2)c(-c2ccc(Cl)s2)n1` (stereo not shown) [Example 318], the efficacy with Leptosphaeria nodorum came to 70%. Further, the log p (pH 2.7) is 4.89^[b].
On to `FC(F)Cn1cc(-c2ccncc2)c(-c2ccc(Br)s2)n1` [Example 384], for which, in the series on Fusarium graminearum, the “% Inhibition of fungal growth at 50 μM” value was 100% and the “% Inhibition of DON/AcDON at 50 μM” value turned out to be 99%. Also, the efficacy with Leptosphaeria nodorum was found to be 90%. Further, for the setting “pH 2.7”, the log p was 1.67^[b] and the “logP value of the minor isomer” value is given as “(1.51)”. The compound also showed an efficacy with Alternaria solani of 94%.
With `CC1(Cn2cc(-c3ccncc3)c(-c3ccc(Br)s3)n2)CC1(Cl)Cl` (stereo not shown) [Example 386], in the series on Fusarium graminearum, the “% Inhibition of fungal growth at 50 μM” value was found to be 0% and the “% Inhibition of DON/AcDON at 50 μM” value was 99%. The compound also came in with an efficacy in the series with Leptosphaeria nodorum of 80%. Further, under “pH 2.7”, the log p was 2.75^[b] and the “logP value of the minor isomer” value is given as “(2.50)”. The compound further registered an efficacy in the series with Alternaria solani of 89%.
As for `FCCn1cc(-c2ccncc2)c(-c2ccc(Br)s2)n1` [Example 388], in the series with Fusarium graminearum, the “% Inhibition of fungal growth at 50 μM” value turned out to be 100% and the “% Inhibition of DON/AcDON at 50 μM” value was 99%. The efficacy in the series with Leptosphaeria nodorum is listed as 80%. Moreover, under “pH 2.7”, the log p is 1.49^[b] and the “logP value of the minor isomer” value is on record as “(1.34)”. Besides, the efficacy in the series on Alternaria solani was found to be 100%.
`CCC(CC)n1cc(-c2ccncc2)c(-c2ccc(Br)s2)n1` [Example 392]: in the series with Fusarium graminearum, the “% Inhibition of fungal growth at 50 μM” value is recorded as 97% and the “% Inhibition of DON/AcDON at 50 μM” value was 99%. The efficacy in the series on Leptosphaeria nodorum is reported as 70%. For the setting “pH 2.7”, the log p was 2.39^[b] and the “logP value of the minor isomer” value was “(2.22)”. The efficacy with Alternaria solani is on record as 100%.
As to `CC(=O)Nc1cc(-c2cn(CC(C)C)nc2-c2ccc(Cl)s2)cc[n+]1[O-]` [N-{4-[3-(5-chloro-2-thienyl)-1-isobutyl-1H-pyrazol-4-yl]-1-oxidopyridin-2-yl}acetamide], in “physchem”, the log p worked out at 2.86.
Still for that read-out and setting: under `CC(C)Cn1cc(-c2ccnc(N(C(=O)C3CC3)C(=O)C3CC3)c2)c(-c2ccc(Cl)s2)n1` [N-{4-[3-(5-chloro-2-thienyl)-1-isobutyl-1H-pyrazol-4-yl]pyridin-2-yl}-N-(cyclopropylcarbonyl)cyclopropanecarboxamide] stands 4.75.
